The values below come from the NIST ThermoML archive (doi:10.1021/je800520w).

Structures are written as SMILES. ± gives the expanded uncertainty stated by the source.

The conditions of series [1]: 293.15 K; 101.33 kPa; Liquid; Pycnometric method.
The nature of series [2]: refractive index (Na D-line) (dimensionless). Particulars: 293.15 K; 101.33 kPa; Liquid; Standard Abbe refractometry.

One may read the mass density as the mass of a sample divided by its volume. By refractive index is commonly meant a measure of how strongly the sample bends light. Turning to `CCCCO` [butan-1-ol], the mass density in series [1] is recorded as 810.3 ± 0.5 kg/m3. For the same compound, the refractive index in series [2] worked out at 1.3997 ± 0.0005.

As for `CCC(C)O` (centres undefined) [butan-2-ol], the mass density in series [1] is given as 802.6 ± 0.5 kg/m3. Further, the refractive index in series [2] is listed as 1.3955 ± 0.0005.

Turning to `CCCCCCO` [hexan-1-ol], the mass density in series [1] was determined as 813.8 ± 0.5 kg/m3. Further, the refractive index in series [2] is 1.4175 ± 0.0005.

Regarding `CO` [methanol], in series [1], the mass density is given as 791.7 ± 0.5 kg/m3. Besides, in series [2], the refractive index is 1.3291 ± 0.0005.

For `CCCCCO` [pentan-1-ol], the mass density in series [1] is listed as 812.9 ± 0.5 kg/m3. Besides, in series [2], the refractive index is 1.4092 ± 0.0005.

`CCCO` [propan-1-ol]: in series [1], the mass density came out at 803.8 ± 0.5 kg/m3. The refractive index in series [2] was determined as 1.3853 ± 0.0005.

Consider `CC(C)O` [propan-2-ol], for which the mass density in series [1] was 784.9 ± 0.5 kg/m3. Besides, in series [2], the refractive index stood at 1.378 ± 0.0005.
